Among the data in ChEMBL document CHEMBL1136585, “Inhibition of inosine monophosphate dehydrogenase (IMPDH) by 2-[2-(Z)-fluorovinyl]inosine 5'-monophosphate” (Bioorg Med Chem Lett, 2003) are Ki and K inact values, retold here.

The structures appear in SMILES notation.

In experiment [1] the target is Inosine-5'-monophosphate dehydrogenase (Escherichia coli). Put plainly: Inhibition of IMPDH (Inosine 5''-monophosphate dehydrogenase)from Escherichia coli B3 cells.
Experiment [2] deals with Inosine-5'-monophosphate dehydrogenase (Escherichia coli). The description is as above. The source holds these as a separate data set.

In general, Ki refers to a measure of affinity in units of concentration, obtained from inhibition or displacement. Read a low Ki as higher affinity. Turning to `O=P(O)(O)OC[C@H]1O[C@@H](n2cnc3c(Cl)ncnc32)[C@H](O)[C@@H]1O`, in experiment [1], the Ki was found to be 62 µM.

`O=P(O)(O)OC[C@H]1OC(n2cnc3c(O)nc(/C=C/F)nc32)[C@H](O)C1O` (single isomer, unassigned) registered a Ki in experiment [1] of 1.11 µM. In experiment [2], this compound came in with a K inact of 0.0269 s⁻¹.
